Assay [1] deals with murine endotoxic shock model (LPS). Briefly: murine endotoxic shock model, serum cytokines by ELISA. Type of assay: in vivo. The following applies: mice. Here is the method:
The activity of 6,7-dihydroxynaphthalene-3-sulfonic acid (compound 6) was studied in the murine endotoxic shock model. This model has been previously shown to be dependent on MIF (35). […] Endotoxaemia was induced by intra-peritoneal injection of lipopolysaccharide (LPS) (15 mg/kg) in 400 μl saline. Mice were treated with a saline solution (control) only, a saline solution and LPS, or LPS and 6,7-dihydroxynaphthalene-2-sulfonic acid (compound 6) at a dose of 15 mg/kg body weight by intra-peritoneal injection at 24 hours, 12 hours and 1 hour before intra-peritoneal LPS injection. After 1.5 or 6 hours mice were humanely killed by CO2 inhalation then neck dislocation. Serum was obtained from blood obtained by cardiac puncture prior to death and measured for cytokines including interleukin 1 (IL-1) and interleukin 6 (IL-6) by ELISA. The production of IL-1 and IL-6 has been previously shown to be dependent on MIF (36).
The effect of compounds was further tested under a variety of conditions in animals exposed to endotoxic shock induced as above by the injection of 15 mg/kg LPS by intraperitoneal injection. In each case, compounds were administered by intraperitoneal injection at a dose of 15 mg/kg. Compound administration was associated with reductions in serum cytokine concentration under a variety of administration regimens.

For assay [2], the system named is antigen-specific T cell activation (splenic T lymphocytes from mBSA-immunised mice). The assay is described as follows: antigen-specific (mBSA) activation of splenic T lymphocytes in vitro, 3H-thymidine incorporation. To be noted: Mus musculus, T-cell, read-out: EC50 (T cell activation suppressed by 50% compared to vehicle-only-treated cells). Type of assay: cell-based, C57BL6/J mice. Put shortly:
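Splenocytes from mBSA-immunised mice, erythrocytes lysed, stimulated with mBSA 10–50 μg/mL for 30 h at 37 °C, 5% CO2. 3H-thymidine (0.5 μCi/well) then added for 18 h; proliferation read by scintillation counting.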

Assay [3] deals with recombinant human macrophage migration inhibitory factor (MIF)-induced proliferation of S112 human dermal fibroblasts. Briefly: MIF-induced proliferation of S112 human dermal fibroblasts, 3H-thymidine incorporation. It is filed as cell-based.
The subject of assay [4] is LPS-induced IL-1 release from peritoneal macrophages. The assay is described as follows: LPS-induced interleukin 1 release from murine peritoneal macrophages, ELISA. It is filed as cell-based, C57BL6/J mice. Here is the method: C57BL6/J male mice were injected intraperitoneally with 2ml of thioglycollate. Five (5) days later peritoneal macrophages were collected by ravaging the peritoneum of anaesthetized mice with 3 ml of cold Hanks buffered saline solution. Cells from several mice were pooled, washed and re-suspended in DMEM supplemented with 5% FCS. Cells were plated in 96 well plastic tissue culture plates at 1×10^5 cells/well. Cells were treated with compound or vehicle for 1 hour in a 5% CO2 incubator at 37° C. Cells were then treated with LPS (10 ng/ml) and incubated for 24 hours. After 24 hours, 50 μl of supernatant from each well was carefully removed and transferred to ELISA plates. The concentration of interleukin 1 (IL-1 ) was measured by ELISA. The concentration of compound at which LPS-induced cytokine release was suppressed by 50% compared to vehicle-only-treated cells (EC50) was calculated using Prism® software. FIG. 13 and Table 8 provide the data for compound 6 tested in this assay.

Values joined by “and” are separate entries in the source; they are usually repeats but may differ in a detail not shown here. Identical values can stand only once. Like-named read-outs stand apart in the source and are kept apart here.

With `O=S(=O)(O)c1ccc2cc(O)c(O)cc2c1` [Compound 6, 6,7-dihydroxynaphthalene-2-sulfonic acid], the “Serum TNF, LPS plus compound” value in assay [1] (compound 15 mg/kg i.p. at −18 h before LPS 15 mg/kg i.p.) came out at 3970 ± 2565 pg/mL. For the same molecule, the “Serum IL-6, LPS plus compound” value in assay [1] (compound 15 mg/kg i.p. at −24 h, −1 h before LPS 15 mg/kg i.p.) was 150 ± 19 ng/mL and 104 ± 11 ng/mL. The “serum IL-1, LPS plus compound” value in assay [1] (compound 15 mg/kg i.p. at −24 h, −12 h, −1 h before LPS 15 mg/kg i.p.) was 257 ± 70 ng/mL. In addition, the EC50 was 21.8 µM in assay [2] (mBSA 10 μg/ml); 104 µM in assay [2] (mBSA 50 μg/ml); 27 µM in assay [4] (Mus musculus, Peritoneal macrophage, [LPS] 10 ng/mL, 24 hours, read-out: EC50 (LPS-induced IL-1 release suppressed by 50%)). In addition, the “effect on proliferation of S112 cells treated with recombinant human MIF (FIG. 12)” value in assay [3] (0.013-1.3 μM, six separate experiments) is given as “marked inhibitory effect”. Also, the inhibition at 0.13 µM in assay [3] (Homo sapiens, Fibroblast, concentration 0.13 μM, rhMIF 50 ng/ml, S112 cells, read-out: % inhibition of proliferation compared to vehicle plus rhMIF-treated cells) is 47%. The “inhibition of macrophage IL-1 release, dose-response (FIG. 13)” value in assay [4] (LPS 10 ng/ml, p<0.02) was “marked and statistically significant inhibition of macrophage IL-1 release”.

These data come from patent US20060106102A1, “Napththalene derivatives which inhibit the cytokine or biological activity of microphage migration inhibitory factor (mif)” (priority 2002, published 2006).
